According to the supplement of paper PMC13380429:
± gives the standard deviation of the averaged measurements.

Experiments:
Conditions in all cases: 72 h
[1] = system: Caco-2; assay: cell viability relative to DMSO; higher = less toxic
[2] = system: Calu-3; assay: as above
[3] = system: HepG2; assay: as above
[4] = system: U2OS; assay: as above
[5] = system: Vero E6; assay: as above
[6] = system: Caco-2; assay: relative viability EC50 (midpoint between 100% and the lowest measured viability); higher = less toxic
[7] = system: Calu-3; assay: as above
[8] = system: HepG2; assay: as above
[9] = system: U2OS; assay: as above
[10] = system: Vero E6; assay: as above
[11] = system: Caco-2; assay: drug sensitivity score (DSS) for viability; higher = more toxic; extreme values may be limits of the assay
[12] = system: Calu-3; assay: as above
[13] = system: HepG2; assay: as above
[14] = system: U2OS; assay: as above
[15] = system: Vero E6; assay: as above

Row | SMILES | cell viability ([1]; 1 nM) [%] | cell viability ([1]; 10 nM) [%] | cell viability ([1]; 100 nM) [%] | cell viability ([1]; 1000 nM) [%] | cell viability ([1]; 10000 nM) [%] | cell viability ([2]; 1 nM) [%] | cell viability ([2]; 10 nM) [%] | cell viability ([2]; 100 nM) [%] | cell viability ([2]; 1000 nM) [%] | cell viability ([2]; 10000 nM) [%] | cell viability ([3]; 1 nM) [%] | cell viability ([3]; 10 nM) [%] | cell viability ([3]; 100 nM) [%] | cell viability ([3]; 1000 nM) [%] | cell viability ([3]; 10000 nM) [%] | cell viability ([4]; 1 nM) [%] | cell viability ([4]; 10 nM) [%] | cell viability ([4]; 100 nM) [%] | cell viability ([4]; 1000 nM) [%] | cell viability ([4]; 10000 nM) [%] | cell viability ([5]; 1 nM) [%] | cell viability ([5]; 10 nM) [%] | cell viability ([5]; 100 nM) [%] | cell viability ([5]; 1000 nM) [%] | cell viability ([5]; 10000 nM) [%] | relative viability EC50 [6] [µM] | relative viability EC50 [7] [µM] | relative viability EC50 [8] [µM] | relative viability EC50 [9] [µM] | relative viability EC50 [10] [µM] | drug sensitivity score [11] | drug sensitivity score [12] | drug sensitivity score [13] | drug sensitivity score [14] | drug sensitivity score [15]
1 | CC12CCC(CC1=O)C2(C)C (stereo not drawn) [camphor-(+)] | 95.2 ± 8.1 | 90.5 ± 0.99 | 99.2 ± 3.3 | 93.8 ± 7.3 | 99.3 ± 6.2 | 86 | 101 | 102 | 112 | 112 | 95.8 ± 3.6 | 104 ± 13 | 96.1 ± 0.42 | 98.2 ± 1.8 | 96.6 ± 14 | 101 ± 2.5 | 101 ± 6 | 99.8 ± 0.42 | 101 ± 5.5 | 99.8 ± 3.1 | 96.9 ± 3.2 | 98.5 ± 2.7 | 99.2 ± 4.2 | 96.7 ± 2 | 101 ± 9.5 | > 10 | > 10 | > 10 | > 10 | > 10 | 0 | 0 | 0.15 ± 0.21 | 0 | 0
2 | CCN(CC)CCN[C@@H](C(=O)OCCC(C)C)c1ccccc1 [camylofine-chlorhydrate] | 84.4 | 82 | 85.5 | 100 | 85.6 | 96.3 | 107 | 102 | 97.5 | 99 | 106 | 105 | 98.6 | 97.3 | 108 | 90.7 | 99.7 | 94.8 | 101 | 108 | 94.9 | 93 | 95.7 | 91.1 | 103 | > 10 | > 10 | > 10 | > 10 | > 10 | 1 | 0 | 0 | 0 | 0
3 | C[C@@H]1CC[C@H]2C(C)(C)[C@H]3C[C@@]12CC[C@@]3(C)O [cedrol] | 97.5 | 88.4 | 100 | 99.4 | 104 | 96.9 | 97.1 | 103 | 87.7 | 102 | 97.7 | 102 | 98 | 104 | 118 | 99.9 | 94.5 | 101 | 97.1 | 101 | 94.5 | 96.5 | 91.2 | 94.7 | 103 | > 10 | > 10 | > 10 | > 10 | > 10 | 0 | 0 | 0 | 0 | 0
4 | CCCCCCCCCCCCCCCCNc1ccc(C(=O)O)cc1 [cetaben] | 99.2 | 97.4 | 109 | 93.7 | 103 | 99.5 | 101 | 98.5 | 90.8 | 95.4 | 101 | 111 | 97.3 | 105 | 99.5 | 99.5 | 97.8 | 102 | 99.2 | 98.5 | 99.8 | 99.2 | 94.4 | 98.8 | 101 | > 10 | > 10 | > 10 | > 10 | > 10 | 0 | 0 | 0 | 0 | 0
5 | CC1OC2(CS1)CN1CCC2CC1 (stereo not given) [cevimeline] | 98.3 | 88.1 | 91.3 | 91 | 96.3 | 106 | 92.9 | 102 | 97.1 | 103 | 107 | 97 | 94.9 | 89.2 | 111 | 99.1 | 98.9 | 99.7 | 106 | 106 | 96.7 | 91.5 | 92.7 | 89.7 | 102 | > 10 | > 10 | > 10 | > 10 | > 10 | 0 | 0 | 0 | 0 | 0
6 | CC1(C)[C@H]2CC[C@]1(C)[C@@H](O)[C@H]2O [cis-exo-camphanediol-2,3] | 99.8 ± 5.1 | 104 ± 12 | 100 ± 9.5 | 102 ± 15 | 95.5 ± 5.4 | 104 ± 7.5 | 100 ± 1.9 | 106.2 ± 0.64 | 102 ± 5.9 | 97.85 ± 0.21 | 92 | 88.7 | 98.7 | 98.1 | 102 | 99.55 ± 0.071 | 106 ± 1.4 | 99 ± 1.6 | 99.5 ± 3.2 | 99 ± 5.7 | 97.8 ± 2.5 | 96.5 ± 10 | 96.8 ± 1.5 | 94.8 ± 6.7 | 95.6 ± 3.2 | > 10 | > 10 | > 10 | > 10 | > 10 | 0 | 0 | 0 | 0 | 0
7 | COc1cc(N)c(Cl)cc1C(=O)NC1CCN(Cc2ccccc2)CC1 [clebopride] | 107 | 99.9 | 108 | 102 | 85.6 | 94.3 | 101 | 107 | 96.6 | 94.2 | 97.1 | 97.5 | 95.1 | 104 | 94.7 | 93.7 | 97.2 | 96.8 | 97.3 | 94 | 93.6 | 104 | 102 | 97.6 | 98.1 | > 10 | > 10 | > 10 | > 10 | > 10 | 0.1 | 0 | 0 | 0 | 0
